Test results reported in PubChem BioAssay AID651563 (Sanford-Burnham Center for Chemical Genomics, 2012).
Calls of active or inactive are those of the source.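 The calls were made as follows: active = compounds whose IC50 is 20 micromolar or lower, counted as confirmed SKN-1 reporter blockers; inactive = the rest.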

These compounds were tested on C. elegans VP596 Pgst-4::GFP/RFP ratio, acrylamide, 24 h (assay: C. elegans gst-4 reporter suppression, concentration series – whole organism, GFP/RFP fluorescence ratio, set 2, strain VP596, SKN-1 inhibitor project, dose response (AID 651563);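 also: red signal is driven by the dop-3 promoter and serves as the normalizer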).
In the case of `COc1cc(CNC(C)c2ccccc2)cc(Br)c1OCc1ccc(F)cc1` (centres undefined), the IC50 is reported as 9.1 µM. `O=C(C=Cc1cccs1)c1ccc(Cl)s1` was tested, and the IC50 was 17.7 µM. In the case of `O=[N+]([O-])c1ccc2nc(-c3ccccc3)oc2c1`, the IC50 is reported as 3.84 µM. In the case of `c1ccc(-c2ccc(-n3ccnc3)cc2)cc1`, the IC50 is reported as 10.6 µM. For `Nc1ccc2c(Cl)cc(Cl)cc2c1`, the IC50 was 28.5 µM (inactive). With `Cc1ccc(-c2nc(-c3ccncc3)no2)c(C)c1` the IC50 was > 100 µM (inactive). For `O=[N+]([O-])c1ccc(Nc2ccccc2)c2nonc12`, the IC50 was 49.6 µM (inactive). `Clc1ccc(OCCCc2nc(-c3ccncc3)no2)c(Cl)c1` was tested, and the IC50 was 29.5 µM (inactive). For `Fc1ccc(-n2nnc(-c3cccnc3)n2)cc1`, the IC50 was 24.8 µM (inactive). `Clc1ccc(CSc2ncn(-c3ccccc3)n2)cc1` was tested, and the IC50 was 11.2 µM. `O=C(Nc1ccc(SC(F)F)cc1)c1ccccc1F` was tested, and the IC50 was 20.3 µM (inactive). For `O=C(/C=C/c1ccco1)Nc1nc(-c2ccccc2)cs1`, the IC50 was 42.6 µM (inactive). `CCOC(=O)Nc1nc(-c2ccc(F)cc2F)cs1` gave an IC50 of 18.1 µM. For `O=[N+]([O-])c1cccc(-c2c(-c3ccccc3)ncc3cc(F)ccc23)c1`, the IC50 was > 100 µM (inactive). For `O=C(Nc1nc2c(ccc3ccccc32)s1)c1ccco1`, the IC50 was 17.7 µM. `O=[N+]([O-])c1ccc(COc2ccc(CN3CCCC3)cc2)cc1` gave an IC50 of 8.62 µM. `Cc1ccc2nc(-c3ccc(NC(=S)NC4CC(C)(C)NC(C)(C)C4)cc3)sc2c1` was tested, and the IC50 was 15.9 µM. In the case of `CCSc1nnc(-c2ccc(Cl)cc2Cl)o1`, the IC50 is reported as 58.5 µM (inactive). `Clc1ccc(C#Cc2cccnc2)cc1` gave an IC50 of 19.5 µM. In the case of `CCN(CC)Cc1ccc(NC(=O)c2sc3cc(Cl)ccc3c2Cl)cc1`, the IC50 is reported as 13.8 µM. For `Brc1cccc(OCCSc2ncccn2)c1`, the IC50 was > 100 µM (inactive). With `CCCCOC(=O)Nc1ccc(N2CCCCC2)cc1` the IC50 was 38.8 µM (inactive). In the case of `Fc1ccccc1-c1nc(-c2ccncc2)no1`, the IC50 is reported as 38.6 µM (inactive). In the case of `Clc1ccc(-c2nnc(-c3ccccc3)o2)c(Cl)c1`, the IC50 is reported as 1.46 µM. `Clc1ccc(-c2nnc(-c3ccccc3)o2)cn1` was tested, and the IC50 was > 100 µM (inactive). `O=C(/C=C/Nc1ccc(F)c(Cl)c1)c1ccco1` showed an IC50 of 16.7 µM. For `O=C(Nc1ccc(Cl)c(Cl)c1)c1ccco1`, the IC50 was 45.4 µM (inactive). With `Brc1ccc(CSc2nnc(-c3cccnc3)o2)cc1` the IC50 was 29.1 µM (inactive). In the case of `CCOc1cc(CNC2CCCC2)cc(Cl)c1OCc1ccccc1`, the IC50 is reported as 22.4 µM (inactive). With `c1ccc2sc(SCc3ccc(-c4nnco4)cc3)nc2c1` the IC50 was 11.9 µM. In the case of `O=C(/C=C/c1ccc(Cl)cc1Cl)Nc1ccc(CN2CCOCC2)cc1`, the IC50 is reported as > 100 µM (inactive). `CCOC(=O)c1c(-c2ccc(-c3ccccc3)cc2)csc1NC(=O)CNCCN(C)C` was tested, and the IC50 was 10.9 µM. For `c1ccc(-c2csc(-c3ccncc3)n2)cc1`, the IC50 was 12.6 µM. `Fc1ccc(-c2cnc(-c3cccs3)o2)cc1` was tested, and the IC50 was 27.5 µM (inactive). Compound `O=C(/C=C/c1ccccc1)/C=C/c1ccccc1` has an IC50 of 16.2 µM. With `O=[N+]([O-])c1ccc(COc2ccc(CN3CCCCC3)cc2)cc1` the IC50 was 8.89 µM. `CCc1ccc(C(=O)Nc2ccc3nc(C)ccc3c2)cc1` gave an IC50 of 14.2 µM. With `Fc1ccccc1CSc1ccc(-c2ccco2)nn1` the IC50 was > 100 µM (inactive). In the case of `O=C1c2cc(Br)ccc2OC2C=CC=CC12` (centres undefined), the IC50 is reported as > 100 µM (inactive). In the case of `O=C(Nc1ccc(-c2nnc(-c3ccccc3)o2)cc1)c1ccc(Br)o1`, the IC50 is reported as > 100 µM (inactive). With `c1ccc(-c2nc(-c3ccncc3)no2)cc1` the IC50 was 24.7 µM (inactive). In the case of `Fc1ccc(-n2nnc(-c3nccs3)n2)cc1`, the IC50 is reported as 24.4 µM (inactive). For `CCCCOC(=O)Nc1ccc(C(C)C)cc1`, the IC50 was 76.2 µM (inactive). `O=C(Nc1ccc(Cl)cn1)c1ccccc1F` was tested, and the IC50 was 20.6 µM (inactive). For `O=C(/C=C/Nc1ccc(F)c(F)c1)c1cccs1`, the IC50 was 11.4 µM. `O=C(Nc1ccc(CN2CCOCC2)cc1)c1cc2ccccc2o1` gave an IC50 of 17.5 µM. Compound `Fc1ccc(-n2nnc(-c3cccnc3Cl)n2)cc1` has an IC50 of 8.82 µM. `FCCCOc1ccc(-c2nccc(-c3ccccn3)n2)cc1` was tested, and the IC50 was 25.6 µM (inactive). For `Clc1ccsc1-c1ccc2ccccc2n1`, the IC50 was 20.3 µM (inactive). In the case of `Clc1ccc(Cn2cc(Br)cn2)cc1Cl`, the IC50 is reported as 30.6 µM (inactive). `O=C(Oc1ccccc1)N1CCN(c2ccc(F)cc2)CC1` was tested, and the IC50 was > 100 µM (inactive). For `COc1ccc2c(c1OC)C(=O)OC2Nc1nc(-c2ccc(-c3ccccc3)cc2)cs1` (centres undefined), the IC50 was 33.8 µM (inactive). With `CCc1nc2c(OCc3ccc(C(F)(F)F)cc3)cccn2c1N(C)C(=O)c1ccncc1` the IC50 was 3.57 µM. In the case of `CN(C)C(CNC(=O)CCc1nc2cc(Cl)ccc2n(Cc2ccccc2)c1=O)c1ccccc1` (centres undefined), the IC50 is reported as 26.1 µM (inactive). For `O=C(/C(C=Nc1ccc(Br)cc1)=C(/O)c1ccco1)C(F)(F)F`, the IC50 was 21 µM (inactive). For `N#Cc1cncc(C#Cc2ccccc2)c1`, the IC50 was 31 µM (inactive). With `COC(=O)c1c(-c2ccccc2)noc1-c1ccccc1` the IC50 was 49.3 µM (inactive). In the case of `N=C1C=CC(=C(c2ccc(N)cc2)c2ccc(N)cc2)C=C1`, the IC50 is reported as 20.2 µM (inactive). Work on `CN1CCN(c2ccc(NC(=O)c3ccc(Oc4ccccc4)cc3)cc2)CC1` yielded an IC50 of 12.5 µM. `CCOc1ccc(-c2nc(-c3cccnc3)no2)cc1` was tested, and the IC50 was 19 µM. `Fc1ccc(OCc2nc(-c3cccs3)no2)cc1` was tested, and the IC50 was 31.5 µM (inactive). In the case of `O=[N+]([O-])c1ccc2nc(N3CCCC3)sc2c1`, the IC50 is reported as > 100 µM (inactive). `Clc1ccc(Nc2nc(-c3cccs3)cs2)nc1` gave an IC50 of 11.5 µM. `O=C(c1ccc(Cl)cc1)c1cc([N+](=O)[O-])ccc1N1CCOCC1` was tested, and the IC50 was > 100 µM (inactive).
